Data: US20220096508A1, “METHOD OF TREATMENT AND PHARMACEUTICAL DOSAGE FORM” (Aprea Therapeutics AB, priority 2019, published 2022)
Read-outs that look alike come from different tables or passages of the source.

Tested on: TP53 mutant myeloid neoplasms
From the text: The study, identified as NCT03072043 on clinicaltrials.gov, is a multi-institution, open-label, phase Ib/II clinical trial conducted in 2 parts: a Phase 1 b part followed by a Simon's two-stage Phase 2 design. The study assesses the safety and efficacy of APR-246 in combination with azacitidine for the treatment of TP53 mutant myeloid neoplasms. All patients were pre-screened by NGS on peripheral blood (PB) or bone marrow (BM) samples to determine TP53 mutational status and therefore eligibility to participate in this study. A PB sample was obtained prior to treatment for NGS by a central laboratory, to evaluate baseline TP53 VAF and for serial analysis.
Treatment was administered on an outpatient basis. No investigational or commercial agents or therapies other than those described were administered with the intent to treat the patient's MDS or MDS/MPN. APR-246 was supplied by Aprea Therapeutics AB. The investigational medicinal product was a concentrate for solution, diluted with sterile 0.9% NaCl solution for infusion before administration. The solution for infusion was prepared with the prescribed dosage for each patient in accordance with the protocol and separate technical instruction.
The initial Phase 1 b part evaluated APR-246 administered with azacitidine. Cohorts of at least 3 evaluable patients were enrolled using a modified 3+3 design. Patients received IV infusions of APR-246 as a lead-in phase on days −14 to −11, starting at Dose Level 1 (see below and in Table 1) prior to starting cycle #1 of combination therapy with azacitidine (see FIG. 1) In all cycles, APR-246 was administered as a 6-hour infusion daily for four consecutive days (study days −14 to −11 of the lead in phase and day 1 to 4 of each combination cycle). • Dose Level 1 (starting dose): APR-246 21.0 mg/kg LBM (for the first 45 min)+29 mg/kg LBM (for 5 h 15 min) on days 1 to 4. • Dose Level 2: APR-246 30.0 mg/kg LBM (for first 45 min)+45.0 mg/kg LBM (for 5 h 15 min) on days 1 to 4. • Dose Level 3: APR-246 37.0 mg/kg LBM (for first 45 min)+63.0 mg/kg LBM (for 5 h 15 min) on days 1 to 4.
Thus, the combination therapy consisted of APR-246 on days 1-4 and azacitidine on days 4-10 of a 28-day cycle. Azacitidine was administered subcutaneously (SC) or intravenously (SC being preferred) at 75 mg/m^2 for 7 days (either for 7 consecutive days (days 4-10) or on 2+5 days (i.e. days 4-5 and 8-12)). Azacitidine was administered on day 4 at the same time as the final infusion of APR-246. Azacitidine was given following the completion of APR-246 infusion. Cohorts of at least 3 evaluable patients were enrolled using a modified 3+3 design. Patients were followed for at least 6 weeks (lead-in phase+cycle 1) before decision to dose escalation in the next cohort following a full safety assessment. The MTD was defined as the dose level below which DLT is manifested in 33% of the patients or at dose level 1 if DLT is manifested in <33% of the patients.
Following completion of the dose finding phase described above, a dose expansion was carried out, whereby patients are treated with APR-246 administered at the MTD with azacitidine on a 28-day cycle with the same dosing schedule as in Phase Ib, with the exception of no lead in phase (i.e. patients will start at day 1 of combination therapy with APR-246 on days 1˜4 and azacitidine on days 4-10 (or days 4-5 and 8-12) of a 28-day cycle as illustrated in FIG. 1), and the exception that the recommended Phase 2 dose was modified from 100 mg/kg LBM to a fixed dose regimen of 4500 mg/patient (i.e. APR-246 administration in 2 consecutive steps as a loading dose (1500 mg for first 45 min) and a maintenance dose (3000 mg for 5 h 15 min)).

[1] = MDS population (n=40), combination with azacitidine
[2] = protocol-defined efficacy evaluable MDS population (n=33), combination with azacitidine

## COCC1(CO)C(=O)C2CCN1CC2 (stereo not drawn) [APR-246, 2-hydroxymethyl-2-methoxymethyl-1-azabicyclo [2,2,2] octan-3-one]
MDS patients, combination with azacitidine
  patients able to discontinue therapy and proceed to allogeneic SCT: 40%
[1]
  CR rate: 50%
  ORR: 73%
Efficacy evaluable MDS patients, combination with azacitidine
  patients able to discontinue therapy and proceed to allogeneic SCT: 48%
human, in vivo
  recommended Phase 2 dose: 100 mg/kg lean body weight
Of 24 evaluable patients at the MTD, combination with azacitidine
  patients who achieved CR, Stage 1: More than 6
Of 45 evaluable patients, combination with azacitidine
  patients who achieved CR, Stage 2: More than 14
[2]
  CR: 61%
  ORR: 88%
